In PubChem BioAssay (NCI):
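Following 48 hours of exposure in 96-well plates, responses at five concentrations were used to interpolate endpoints linearly. GI50 = concentration required for 50% inhibition of growth. At the TGI there is no net growth.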

Key:
Assay in all cases: inhibition of tumour cell growth, NCI panel, 48 h
786-0 renal = tested on: 786-0 renal
EKVX NSCLC = tested on: EKVX NSCLC
KM12 colon = tested on: KM12 colon
OVCAR-3 ovarian = tested on: OVCAR-3 ovarian
OVCAR-4 ovarian = tested on: OVCAR-4 ovarian
SK-MEL-5 melanoma = tested on: SK-MEL-5 melanoma
SNB-75 CNS = tested on: SNB-75 CNS
SW-620 colon = tested on: SW-620 colon
HCT-116 colon = tested on: HCT-116 colon
NCI-H226 lung = tested on: NCI-H226 lung

`CCN(CC)CCCC(Nc1c2ccc(Cl)cc2nc2ccc(OC)cc12)c1ccc(Cl)cc1` (stereo not drawn) showed a GI50 (786-0 renal) of 1.29 µM, a TGI (786-0 renal) of 2.91 µM and a GI50 (EKVX NSCLC) of 1.35 µM. The TGI (EKVX NSCLC) was 2.96 µM, the GI50 (KM12 colon) was 1.52 µM and the TGI (KM12 colon) was 2.99 µM. The GI50 (OVCAR-3 ovarian) was 1.22 µM, the TGI (OVCAR-3 ovarian) was 2.75 µM and the GI50 (OVCAR-4 ovarian) was 1.13 µM. For the same molecule, the TGI (OVCAR-4 ovarian) was 3.17 µM, the GI50 (SK-MEL-5 melanoma) was 1.25 µM and the TGI (SK-MEL-5 melanoma) was 2.54 µM. The GI50 (SNB-75 CNS) was 1.16 µM, the TGI (SNB-75 CNS) was 2.44 µM and the GI50 (SW-620 colon) was 1.37 µM. It also gave a TGI (SW-620 colon) of 2.99 µM.

Molecule `COc1cc2c(c3c1c(=O)c1ccccc1n3C)C=C([N+](=O)[O-])C(C)(C)O2` has a TGI (786-0 renal) greater than 100 µM, a TGI (EKVX NSCLC) greater than 100 µM and a TGI (HCT-116 colon) greater than 100 µM. It also gave a TGI (KM12 colon) greater than 100 µM, a TGI (NCI-H226 lung) greater than 100 µM and a TGI (OVCAR-3 ovarian) greater than 100 µM. It also gave a TGI (OVCAR-4 ovarian) greater than 100 µM, a TGI (SK-MEL-5 melanoma) of 0.0567 µM and a TGI (SNB-75 CNS) greater than 100 µM.

With `COC(=O)C1CCC(C)CC1=O` (stereo not drawn) the TGI (786-0 renal) was greater than 100 µM, the TGI (EKVX NSCLC) was greater than 100 µM and the TGI (HCT-116 colon) was greater than 100 µM. It also gave a TGI (KM12 colon) greater than 100 µM, a TGI (OVCAR-3 ovarian) greater than 100 µM and a TGI (OVCAR-4 ovarian) greater than 100 µM. The TGI (SK-MEL-5 melanoma) was greater than 100 µM, the TGI (SNB-75 CNS) was greater than 100 µM and the TGI (SW-620 colon) was greater than 100 µM.

Work on `CC(C)c1ccc(Cc2ccc(C(C)C)c(NC(=O)C(=O)Cc3cnc4ccccc4n3)c2C(C)C)c(C(C)C)c1NC(=O)C(=O)Cc1cnc2ccccc2n1` yielded a TGI (786-0 renal) greater than 100 µM, a TGI (EKVX NSCLC) greater than 100 µM and a TGI (HCT-116 colon) greater than 100 µM. The TGI (KM12 colon) was greater than 100 µM, the TGI (OVCAR-3 ovarian) was greater than 100 µM and the TGI (OVCAR-4 ovarian) was greater than 100 µM. For the same molecule, the TGI (SK-MEL-5 melanoma) was greater than 100 µM and the TGI (SW-620 colon) was greater than 100 µM.

In the case of `CCC(Oc1ccc(OC)c2c1C(=O)CCC2)C(=O)O` (stereo not drawn), the TGI (786-0 renal) is reported as greater than 100 µM, the TGI (EKVX NSCLC) is reported as greater than 100 µM and the TGI (KM12 colon) is reported as greater than 100 µM. The TGI (NCI-H226 lung) was greater than 100 µM, the TGI (OVCAR-3 ovarian) was greater than 100 µM and the TGI (OVCAR-4 ovarian) was greater than 100 µM. For the same molecule, the TGI (SK-MEL-5 melanoma) was greater than 100 µM, the TGI (SNB-75 CNS) was greater than 100 µM and the TGI (SW-620 colon) was greater than 100 µM.

With `CCOC(=O)c1cc(C(=O)c2ccc(OC)c(OC)c2)n2c1ccc1ccc3cccnc3c12` the GI50 (786-0 renal) was 2.34 µM, the TGI (786-0 renal) was greater than 100 µM and the GI50 (EKVX NSCLC) was 4.14 µM. It also gave a TGI (EKVX NSCLC) greater than 100 µM, a GI50 (HCT-116 colon) of 0.619 µM and a TGI (HCT-116 colon) greater than 100 µM. For the same molecule, the GI50 (KM12 colon) was 1.3 µM, the TGI (KM12 colon) was 80.7 µM and the GI50 (NCI-H226 lung) was 6.86 µM. It also gave a TGI (NCI-H226 lung) greater than 100 µM, a GI50 (OVCAR-4 ovarian) of 5.17 µM and a TGI (OVCAR-4 ovarian) greater than 100 µM. The GI50 (SK-MEL-5 melanoma) was 0.836 µM, the TGI (SK-MEL-5 melanoma) was 37.7 µM and the GI50 (SNB-75 CNS) was 2.04 µM. It also gave a TGI (SNB-75 CNS) greater than 100 µM, a GI50 (SW-620 colon) of 0.93 µM and a TGI (SW-620 colon) greater than 100 µM.

`O=c1[nH]c2ccccc2cc1-c1nnc(Cc2ccccc2)o1` showed a GI50 (786-0 renal) of 4 µM, a TGI (786-0 renal) of 14.6 µM and a GI50 (HCT-116 colon) of 1.41 µM. It also gave a TGI (HCT-116 colon) of 3.1 µM, a GI50 (KM12 colon) of 10.4 µM and a TGI (KM12 colon) of 28.4 µM. For the same molecule, the GI50 (NCI-H226 lung) was 11.5 µM, the TGI (NCI-H226 lung) was 94.4 µM and the GI50 (OVCAR-3 ovarian) was 3.25 µM. The TGI (OVCAR-3 ovarian) was 11 µM, the GI50 (OVCAR-4 ovarian) was 4.23 µM and the TGI (OVCAR-4 ovarian) was 18.3 µM. It also gave a GI50 (SK-MEL-5 melanoma) of 3.43 µM, a TGI (SK-MEL-5 melanoma) of 16.4 µM and a GI50 (SNB-75 CNS) of 6.07 µM. It also gave a TGI (SNB-75 CNS) of 21.4 µM, a GI50 (SW-620 colon) of 1.87 µM and a TGI (SW-620 colon) of 4.16 µM.

`O=C(O)c1ccccc1NCn1nc(-c2ccccc2O)oc1=S` showed a GI50 (786-0 renal) of 35.4 µM, a TGI (786-0 renal) greater than 100 µM and a GI50 (EKVX NSCLC) greater than 100 µM. For the same molecule, the TGI (EKVX NSCLC) was greater than 100 µM, the GI50 (HCT-116 colon) was 26 µM and the TGI (HCT-116 colon) was 54.1 µM. It also gave a GI50 (KM12 colon) greater than 100 µM, a TGI (KM12 colon) greater than 100 µM and a GI50 (NCI-H226 lung) of 86.6 µM. The TGI (NCI-H226 lung) was greater than 100 µM, the GI50 (OVCAR-3 ovarian) was greater than 100 µM and the TGI (OVCAR-3 ovarian) was greater than 100 µM. The GI50 (SK-MEL-5 melanoma) was 73.4 µM, the TGI (SK-MEL-5 melanoma) was greater than 100 µM and the GI50 (SW-620 colon) was 33.8 µM. The TGI (SW-620 colon) was greater than 100 µM.
